Assay results: patent US7413851B2, “Nucleophosmin directed diagnostics and therapeutics for multidrug resistant neoplastic disease” (Aurelium Biopharma, Inc., priority 2002, dated 2008)

Tests used:
NB4 cell line = test: Cytotoxicity of Ara-C, MTT staining of viable cells; assay type: cell-based; details: 0 to 1 mM, 72 hours
Experimental: The cytotoxicity of cytosine-β-D-arabinoside (Ara-C) against CEM, HL60 and NB4 cell lines was examined. Cells were seeded in 96 well plates at 1.5×10^4 cells/well in RPMI1640, 10% FBS, 1 mM HEPES or α-MEM, 10% FBS for HL60 and NB4 or CEM, respectively, with varying concentrations of Ara-C (0 to 1 mM). Cytotoxicity was assessed after 72 hours by staining the viable cells with MTT.

[1] = test system: antigen-positive E3 cell line; details: cited from earlier work
E3 target cells = details: cited from earlier work
[2] = anti-CD19 antibody immunoconjugate vs free Ida; read-out: activities; cited from earlier work
[3] = test system: hematological tumor cells; test: Nucleophosmin vaccination before injection of hematological tumor cells; assay type: in vivo; details: mice vaccinated prior to injection of tumor cells vs not vaccinated

Nc1ccn([C@@H]2O[C@H](CO)[C@@H](O)[C@@H]2O)c(=O)n1 [Ara-C, cytosine-β-D-arabinoside]
cytotoxicity against NB4 (FIG. 14) (NB4 cell line): resistance

O=c1[nH]c(=O)n([C@H]2C[C@H](O)[C@@H](CO)O2)cc1F [FUDR, 5-fluoro-2′-deoxyuridine]
IC50 [1]: 0.4 nM

CC(=O)[C@]1(O)Cc2c(O)c3c(c(O)c2[C@@H](O[C@H]2C[C@H](N)[C@H](O)[C@H](C)O2)C1)C(=O)c1ccccc1C3=O [Ida, Idarubicin]
IC50 (E3 target cells): 120 nM | IC50 [2]: 12 nM

nucleophosmin: purified full length murine nucleophosmin protein used as vaccine antigen, optionally with adjuvant
tumor size [3]: smaller
